Results published in patent US20140010824A1 (priority 2012, published 2014).
≈ marks a conversion by molar mass, not a printed value.

Tests used:
Assay in all cases: microbe, parasite or virus in culture
Yptb(P^−) pGC1 (empty) = type: cell-based; details: Yersinia pseudotuberculosis, read-out: minimum inhibitory concentration (MIC)
[1] = system: Yptb(P^−) ΔmrtAB pmrtA^+B^+; type: cell-based; details: Yersinia pseudotuberculosis, read-out: minimum inhibitory concentration (MIC)
Yptb(P^−) pmrtA^+B^+ = type: cell-based, Yersinia pseudotuberculosis; details: for MIC: Yersinia pseudotuberculosis, read-out: minimum inhibitory concentration (MIC)
[2] = system: Yptb(P^−) ΔmrtAB pGC1 (empty); type: cell-based; details: for MIC: Yersinia pseudotuberculosis, read-out: minimum inhibitory concentration (MIC)
[3] = system: Yptb(P^−) ΔmrtAB pmrtA^+B^+ flag; type: cell-based; details: Yersinia pseudotuberculosis, read-out: minimum inhibitory concentration (MIC)

Row | SMILES | MIC (Yptb(P^−) pGC1 (empty)) [µg/mL] | MIC [1] [µg/mL] | MIC (Yptb(P^−) pmrtA^+B^+) [µg/mL] | MIC [2] [µg/mL] | MIC [3] [µg/mL] | change of susceptibility on expression of mrtAB on multi-copy plasmid (pACYC 184 derivative) (Yptb(P^−) pmrtA^+B^+) | difference in MIC resulting from the absence of MrtAB [2]
1 | CN(C)c1ccc2cc3ccc(N(C)C)cc3nc2c1 [aeridine orange, N,N,N′,N′-tetramethylacridine-3,6-diamine] | 50 (≈ 188 µM) | 50 (≈ 188 µM) | 50 (≈ 188 µM) | 50 (≈ 188 µM) | – | – | –
2 | CC[n+]1c(-c2ccccc2)c2cc(N)ccc2c2ccc(N)cc21 [ethidium bromide] | 25 | 100 | 100 | 25 | 100 | – | –
3 | Cn1c2cccc(=O)c-2nc2ccccc21 [pyocyanin] | 1 (≈ 4.76 µM) | 0.25 (≈ 1.19 µM) | 0.25 (≈ 1.19 µM) | 1 (≈ 4.76 µM) | 0.25 (≈ 1.19 µM) | increased susceptibility | No difference was detected
